Here are results for eight compounds from patent US20260374739A1, “SMALL MOLECULAR WEIGHT CHEMICAL COMPOUND TO ANTAGONIZE EPH-EPHRIN TETRAMERIZATION AND INHIBIT BIDIRECTIONAL SIGNALING” (THE BOARD OF REGENTS OF THE UNIVERSITY OF TEXAS SYSTEM, priority 2022, published 2026).

Values joined by “and” are separate entries in the source; they are usually repeats but may differ in a detail not shown here. Equal entries are not always repeated. “Also recorded” adds a separate entry of the source. Where two headings read alike, the source gives them in different places.

The test concerns the target T1, EphB1-EphrinB2 (Rattus norvegicus, UniProt P09759).
T1 construct: rat EphB1-Fc residues 18-538; mouse EB2-His residues 18-232; purchased R&D Systems (EphB1-Fc); Sino Biologicals (EB2-His)
T1 sequence (P09759 18-538): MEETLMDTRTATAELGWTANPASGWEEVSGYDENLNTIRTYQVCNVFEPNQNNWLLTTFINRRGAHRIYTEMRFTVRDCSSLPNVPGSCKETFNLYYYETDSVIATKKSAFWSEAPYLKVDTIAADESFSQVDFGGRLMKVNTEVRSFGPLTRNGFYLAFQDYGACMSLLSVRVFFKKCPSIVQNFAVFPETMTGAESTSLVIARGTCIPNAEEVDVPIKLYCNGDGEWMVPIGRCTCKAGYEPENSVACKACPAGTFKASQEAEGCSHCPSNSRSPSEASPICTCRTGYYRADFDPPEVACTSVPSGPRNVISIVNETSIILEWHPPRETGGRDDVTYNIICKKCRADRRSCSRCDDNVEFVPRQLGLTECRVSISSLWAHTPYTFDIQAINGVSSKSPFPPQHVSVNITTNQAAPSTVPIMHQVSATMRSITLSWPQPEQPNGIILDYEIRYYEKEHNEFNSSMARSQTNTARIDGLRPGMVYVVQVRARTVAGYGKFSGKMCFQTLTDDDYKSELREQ
Briefly: Octet RED384, immobilized rat EphB1-Fc binding to 30 nM mouse EB2-His (400 sec / 500 sec). The arrangement: species or system mouse EphrinB2. On the procedure: FIGS. 9A-9B depict Octet RED384 kinetic analysis sensorgram data of 30 nM soluble mouse EphrinB2 (mEB2-His) protein binding to sensorchip immobilized rat EphB1-Fc (FIG. 9A) or mouse EphB4-Fc (FIG. 9B) protein and effect of increased concentration of A20. Association time was for 400 sec and dissociation time was for 500 sec. Binding assays were conducted in PBS containing 0.05% Tween-20 and 1% DMSO.
The experiments described above involve measurements following long-term incubation of proteins with compound and thus represent information after interaction homeostasis has been achieved (FIG. 5A, FIG. 5B, FIG. 5C, and FIG. 5D) or after complexes are extensively washed (ELISAs and pulldowns, FIG. 8). To further analyze biophysical activity of A20 in real-time, kinetic studies were performed using an Octet® RED384 system to visualize the effect of compound on EphB1-EB2 protein-protein binding dynamics. In these experiments, EphB1-Fc ectodomain protein was first sparsely immobilized onto a set of Octet biosensors, […], 1, 10, or 100 μM A20 for a 400 sec association step followed by exposure to buffer only for a 500 sec dissociation step. […] The sensorgram provides various data of the binding kinetics, such as on rates (kon), off rates (koff), and equilibrium dissociation constant (KD). […] Specifically, EphB2 forms a dimer with EphrinB2, and that two dimers then assemble together into a circular tetramer structure (see FIG. 10 and Himanen J P, Rajashankar K R, Lackmann M, Cowan C A, Henkemeyer M, and Nikolov DB. (2001). Crystal structure of an Eph receptor-ephrin complex. Nature 414:933-8, which is incorporated herein by reference in its entirety).
The distinct dimerization and tetramerization interfaces are indicated. Circular tetramers further cluster together to pack in the crystal via additional ligand-ligand (red arrow) and receptor-receptor (blue arrow) interfaces. Many studies by multiple groups show the circular tetramer and tetramer clusters are observed in vivo and that they are needed in order to form the active complex necessary for the transduction of Eph-Ephrin bidirectional signals. […] A variety of methods can be used to compare the different sensorgrams obtained from a dose-dependent run of a drug compound to quantify its LA activity and obtain IC50 information. Single time points in the assay can be picked and response signals obtained at the different compound doses can be compared, such as at 380 sec near the end of the association step or at 100 sec after start of the dissociation step.
Antagonists are classified as either competitive/reversible or irreversible, depending on how the particular inhibitor interacts with its protein targets. A reversible antagonist will bind receptor protein via non-covalent intermolecular forces, and it will eventually dissociate from the receptor, freeing the protein to bind either another antagonist chemical in the solution or its bona-fide ligand protein. […] A competitive antagonist is thought to bind to receptor protein at the same binding site/interface as the endogenous ligand (aka Ephrin), but without activating the receptor. Ligand and antagonist will thus compete for the same binding site on the receptor; when antagonist is bound to receptor it will prevent ligand binding and increasing concentrations of an antagonist will displace in a dose-dependent fashion the ability of ligand from binding the receptor. Since, most receptor antagonists participate in a reversible, non-covalent, competitive type of interaction, two Octet experiments were conducted to determine if this was indeed the mode of action of A20. To determine if A20 is a reversible inhibitor/antagonist, rEphB1-Fc was first immobilized onto sensor chips, then pre-exposed to 100 μM A20, then washed to remove A20, and after baseline measurements then tested for binding to 30 nM soluble mEB2-His protein. […]

Where [1] appears, read: Absolute Dissociation IC50, rEphB1-mEphrinB2, immobilized rat EphB1, 50 nM soluble mouse EphrinB2, dissociation, absolute.
The mark [2] stands for this setting: Relative Dissociation IC50, rEphB1-mEphrinB2, immobilized rat EphB1, 50 nM soluble mouse EphrinB2, dissociation, relative.
Setting [3] is: rEphB1-mEphrinB2, immobilized rat EphB1, 50 nM soluble mouse EphrinB2, association, absolute, read-out: Absolute Association IC50.
Setting [4] is: rEphB1-mEphrinB2, immobilized rat EphB1, 50 nM soluble mouse EphrinB2, association, relative, read-out: Relative Association IC50.
The mark [5] stands for this setting: EphB1-EB2, AUC, read-out: IC50 (area under the curve).
[6] abbreviates: rEphB1-mEphrinB2, immobilized rat EphB1, 50 nM soluble mouse EphrinB2, dissociation, absolute, read-out: Absolute Dissociation IC50.

Take `O=[N+]([O-])c1cc(CN2CCOCC2)c2cccnc2c1O` [Compound 10, 4-((8-hydroxy-7-nitroquinolin-1-ium-5-yl)methyl)morpholin-4-ium chloride]: the IC50 was 2.48 µM under setting [1], 1.99 µM under setting [2], 99 µM under setting [3] and 5.39 µM under setting [4].
On to `Oc1c(Br)cc(CN2CCOCC2)c2cccnc12` [Compound 6, 4-((7-bromo-8-hydroxyquinolin-1-ium-5-yl)methyl)morpholin-4-ium chloride], for which the IC50 runs as follows: (100 sec dissociation, read-out: IC50 (response at 100 sec after dissociation step)) 2.4 µM; (380 sec association, read-out: IC50 (response at 380 sec after association)) 3.09 µM; under setting [5], 3.63 µM; under setting [3], 28.4 µM; under setting [4], 0.74 µM. Moreover, the “antagonist activity of salt vs free-base” value (fold better than free-base) is 2-3 fold.
In the case of `Oc1ccc(CN2CCOCC2)c2cccnc12` [Compound 1, 5-(morpholinomethyl)quinolin-8-ol], the IC50 under setting [2] amounted to 3.29 µM, the IC50 under setting [3] was 100 µM, the IC50 under setting [4] was 100 µM and the IC50 under setting [6] came to 100 µM.
With `Oc1c(Br)cc(CN2CCOCC2)c2cccnc12` [Compound 5, 7-bromo-5-(morpholinomethyl)quinolin-8-ol], the half-maximal inhibitory concentration (IC50) under setting [5] was determined as 9.33 µM. Under “reversibility 100 μM pre-exposure, competition 0.1-1000 nM EB2, listed as A20”, the “mode of antagonism” value is listed as “compound acts as a reversible inhibitor; also recorded: compound is a competitive inhibitor of EphB1-EB2 binding”.
Take `Oc1c(I)cc(CN2CCOCC2)c2cccnc12` [Compound 8, 4-((8-hydroxy-7-iodoquinolin-1-ium-5-yl)methyl)morpholin-4-ium chloride]: the IC50 was > 1.6 µM and 100 µM under setting [3]; 0.28 µM and 0.53 µM under setting [4]; 0.71 µM and 0.51 µM under setting [6]; 0.51 µM and 0.45 µM (rEphB1-mEphrinB2, immobilized rat EphB1, 50 nM soluble mouse EphrinB2, dissociation, relative, read-out: Relative Dissociation IC50).
Regarding `Oc1c(Cl)cc(CN2CCOCC2)c2cccnc12` [Compound 4, 4-((7-chloro-8-hydroxyquinolin-1-ium-5-yl)methyl)morpholin-4-ium chloride], the IC50 reads like this: under setting [1], 0.83 µM; under setting [2], 0.64 µM; under setting [3], 14.2 µM; under setting [4], 0.93 µM.
On the same counts, the results for `Oc1ccc(CN2CCN(Cc3ccc(C(F)(F)F)cc3)CC2)c2cccnc12` [Compound 48, 5-((4-(4-(trifluoromethyl)benzyl)piperazin-1-yl)methyl)quinolin-8-ol] are 15.1 µM, 2.37 µM, 100 µM and > 10 µM.
As to `O=S1(=O)CCN(Cc2ccc(O)c3ncccc23)CC1` [Compound 15, 4-((8-hydroxyquinolin-1-ium-5-yl)methyl)thiomorpholin-4-ium 1,1-dioxide chloride], the IC50 worked out at 0.9 µM under setting [2], 100 µM under setting [3] and 100 µM under setting [4].
